In article PMC5655031, “A Linear 19-Mer Plant Defensin-Derived Peptide Acts Synergistically with Caspofungin against Candida albicans Biofilms” (Frontiers in Microbiology, 2017):
Where two headings read alike, the source gives them in different places. Numbered stars: 1 amine (or outer) side, 2 acyl side, 3 side chain; on linkers, the order of the positions; unused ones are H or OH. Bridge positions count the residues as written; N and C are the ends. Square brackets hold non-standard residues; d marks the D form. Ends that are not written are not given here. Peptide text beside a SMILES is read from it. * marks the point of attachment. hTyr(3S-OH,4S-OH,3'-OSO3H) = N[C@H](C(=O)O)[C@H](O)[C@@H](O)c1ccc(O)c(OS(=O)(=O)O)c1; pTerphenylCO(4''-OnC5H11) = CCCCCOc1ccc(-c2ccc(-c3ccc(C(=O)*)cc3)cc2)cc1; Orn(4R-OH,5R-OH) = O=C([C@H](C[C@@H](O)[C@@H](O)N[*:3])N[*:1])[*:2]; hTyr(3S-OH,4S-OH) = N[C@H](C(=O)O)[C@H](O)[C@@H](O)c1ccc(O)cc1; Pro(3S-OH,4S-Me) = C[C@H]1CN[C@H](C(=O)O)[C@H]1O; X1 = CCCCCOc1ccc(-c2cc(-c3ccc(C(=O)*)cc3)no2)cc1; Gln(3R-OH) = NC(=O)C[C@@H](O)[C@H](N)C(=O)O; Hyp = O=C(O)[C@@H]1C[C@@H](O)CN1; Abu = CC[C@H](N)C(=O)O

Legend:
[1] = tested on: Candida albicans biofilms; experiment: microbe, parasite or virus in culture
[2] = tested on: Candida dubliniensis biofilms; experiment: In vitro biofilm inhibition assay in microtiter plates (XTT quantification); assay type: cell-based; details: caspofungin alone, n = 3, read-out: BIC50 (CASPO) ± SEM
[3] = tested on: C. albicans caspofungin-resistant mutant M177 (fks1 mutant) biofilms; experiment: microbe, parasite or virus in culture; details: Candida albicans, read-out: BIC50 (CASPO) ± SEM
[4] = tested on: C. albicans biofilms on serum pre-incubated polyurethane catheters; experiment: In vitro biofilm inhibition assay on catheters; assay type: cell-based, Candida albicans; details: 24 h treatment; CFU
Experimental: Polyurethane catheters, overnight incubated in bovine serum, were infected with C. albicans or C. glabrata cells (5 × 10^4 cells/mL) in RPMI medium (Kucharikova et al., [2015]). […] All experiments were performed in quadruplicate with at least three biological repeats.

[5] = tested on: planktonic Candida albicans fks1 mutant cells; experiment: Flow cytometry: HsLin06_18-FITC uptake and membrane permeabilization (PI), fks1 mutant; assay type: cell-based; details: caspofungin (0.5 μM) alone; 40 minutes; n = 3
Experimental: (§1) Membrane permeabilization and HsLin06_18 internalization were determined via flow cytometric analysis on planktonic C. albicans SC5314 WT cells. Exponentially growing cells were exposed to caspofungin ([…]), HsLin06_18-FITC (4.6 μM) or its combination (as described in the material and methods section “fungicidal activity assay”), and to propidium iodide (PI) (2 μg/mL), after which they were subjected to flow cytometry on a BD Influx™ cell sorter. Per treatment, 10,000 cells were monitored for fluorescence at 530/40 nm (FL2_λex = 488 nm) and 610/20 nm (FL11_ λex = 561 nm) for the detection of HsLin06_18-FITC internalization (FITC+) and membrane permeabilization (PI+), respectively. Data from cells treated with 4.6 μM HsLin06_18-FITC were used as background signal.
[picture] Supplementary Figure S3: HsLin06_18-FITC uptake and membrane permeabilization in planktonic Candida albicans WT and fks1 mutant cells, determined via flow cytometry. Cells were treated for 40 minutes with 0.5 µM caspofungin and/or […] HsLin06_18-FITC (HsL-F) and 2 µg/mL propidium iodide (PI). […]

[6] = tested on: Candida glabrata biofilms; experiment: In vitro biofilm inhibition assay in microtiter plates (XTT quantification); assay type: cell-based; details: Nakaseomyces glabratus, caspofungin alone, n = 3, read-out: BIC50 (CASPO) ± SEM
[7] = tested on: Candida albicans biofilms; experiment: as above; assay type: cell-based; details: caspofungin alone, n = 3, read-out: BIC50 (CASPO) ± SEM
[8] = tested on: Candida krusei biofilms; experiment: as above; assay type: cell-based; details: Pichia kudriavzevii, caspofungin alone, n = 3, read-out: BIC50 (CASPO) ± SEM
[9] = tested on: C. albicans SC5314 WT planktonic cells; experiment: Fungicidal activity assay (plating, CFU) on planktonic cells; assay type: cell-based, Candida albicans; details: caspofungin alone, concentrations up to 50 μM, one representative experiment out of 2
Experimental: […] Both at the start and at all measuring points, surviving yeast cells was determined via plating assays. In a plating assay, 10-fold dilution series of yeast cells in PBS were prepared, after which 100 μL was plated on YPD plates. After 1 day of incubation at 37°C, the number of colony forming units (CFU) was counted and cell death was calculated relative to time zero (t0). MFC50 values, indicating the minimum fungicidal concentration resulting in 50% cell death, were determined. In parallel with the plating assay, confocal microscopic or flow cytometric analysis were performed on the samples.

[10] = tested on: planktonic C. albicans SC5314 WT cells; experiment: Flow cytometry: HsLin06_18-FITC uptake and membrane permeabilization (PI); assay type: cell-based, Candida albicans; details: 0.01 μM caspofungin alone; vs t0
Experimental: as §1

[11] = tested on: C. albicans biofilms on catheter pieces; experiment: In vivo biofilm inhibition assay, subcutaneous rat catheter model; details: intravenously (IV) administered, once daily for 7 days; CFU
Experimental: All animal experiments were in accordance with the KU Leuven animal care guidelines and approved by the Ethical Committee of the KU Leuven (P069/2016). In vivo C. albicans biofilms were formed inside catheter pieces in immunosuppressed female Sprague–Dawley rats (200 g) as described previously (Ricicova et al., [2010]). Briefly, serum pre-incubated catheters were infected with C. albicans cells (5 × 10^4 cells/mL) prepared in RPMI medium during the adhesion period (90 min at 37°C). After a washing step, 9 catheter pieces were implanted into the back area of one rat. Inhibition of in vivo C. albicans biofilm formation was initiated immediately after the implant. […] Catheters were explanted from euthanized animals and the number of cells per individual biofilm was determined by CFU (Ricicova et al., [2010]). In vivo experiments were performed once (in total three animals/group).

[12] = tested on: C. albicans caspofungin-resistant mutant M177 (fks1 mutant) biofilms; details: fks1 mut
[13] = HsLin06_18 cytotoxicity assay (MTT); assay type: cell-based; details: human, 24 h treatment, relative to 1% DMSO control, read-out: EC50 (half maximal effective concentration), cytotoxicity
Experimental: Drug cytotoxicity testing was performed as described previously (Vriens et al., [2015b]). Briefly, human hepatoma (HepG2) cells were treated for 24 h with caspofungin, HsLin06_18, its combination or control treatment (1% DMSO). Cell viability was determined by MTT staining (Roche Diagnostics, Germany) and expressed relative to the control treatment. All experiments were performed in quadruplicate with at least three biological repeats.

[14] = tested on: Candida albicans biofilms; details: Caspofungin + HsLin; microtiter plate; means for n ≥ 2
[15] = tested on: candidiasis; details: administered systemically at 7 or 14 mg/kg/day; ref Tavares et al., 2008; cited from earlier work
[16] = read-out: BIC50 (echinocandin) ± SEM

CCCCCOc1ccc(-c2ccc(-c3ccc(C(=O)N[C@H]4C[C@@H](O)[C@@H](O)NC(=O)[C@@H]5[C@@H](O)[C@@H](C)CN5C(=O)[C@H]([C@@H](C)O)NC(=O)[C@H]([C@H](O)[C@@H](O)c5ccc(O)cc5)NC(=O)[C@@H]5C[C@@H](O)CN5C(=O)[C@H]([C@@H](C)O)NC4=O)cc3)cc2)cc1 [Anidulafungin] ({pTerphenylCO(4''-OnC5H11)}-[Orn(4R-OH,5R-OH)]T[Hyp][hTyr(3S-OH,4S-OH)]T[Pro(3S-OH,4S-Me)]; lactam 1-C)
IC50 [1, 16]: 930 ± 120 nM

CC[C@H](C)C[C@H](C)CCCCCCCCC(=O)N[C@H]1C[C@@H](O)[C@@H](NCCN)NC(=O)[C@@H]2[C@@H](O)CCN2C(=O)[C@H]([C@H](O)CCN)NC(=O)[C@H]([C@H](O)[C@@H](O)c2ccc(O)cc2)NC(=O)[C@@H]2C[C@@H](O)CN2C(=O)[C@H]([C@@H](C)O)NC1=O [Caspofungin]
IC50 [2]: 920 ± 17 nM
IC50 [3]: 7400 ± 1360 nM
sub-lethal dose in the in vitro catheter setup [4]: 0.4 µM
cells with permeabilized membranes [5]: < 0.2%
IC50 [6]: 1000 ± 115 nM
IC50 [7]: 700 ± 92 nM
IC50 [8]: 1090 ± 12 nM
cell death [9]: 30%
population of cells with compromised membranes [10]: not significantly increased after 40 min
sub-lethal dose in the subcutaneous rat catheter model [11]: 0.25 mg/kg/day
IC50 ([1]; read-out: BIC50 (CASPO) ± SEM): 830 ± 96 nM
IC50 [1, 16]: 960 ± 40 nM

CC[C@H](NC(=O)[C@H](C)NC(=O)CNC(=O)CNC(=O)[C@H](Cc1ccc(O)cc1)NC(=O)[C@H](C)NC(=O)[C@@H](N)Cc1ccccc1)C(=O)N[C@@H](Cc1c[nH]cn1)C(=O)N[C@@H](Cc1ccc(O)cc1)C(=O)N[C@@H](CCC(N)=O)C(=O)N[C@@H](Cc1ccccc1)C(=O)N1CCC[C@H]1C(=O)N[C@@H](CO)C(=O)N[C@H](C(=O)N[C@@H](CCCCN)C(=O)N[C@@H](CC)C(=O)N[C@@H](Cc1ccccc1)C(=O)N[C@@H](CC)C(=O)N[C@@H](CCCCN)C(=O)O)C(C)C [HsLin06_18] (H-FAYGGA[Abu]HYQFPSVK[Abu]F[Abu]K-OH)
FICI ([12]; caspofungin + 2.5 µM HsLin06_18): < 0.5
FICI ([12]; caspofungin + 5 µM HsLin06_18): < 0.5
EC50 at 24 h [13]: > 50000 nM

CCCCCOc1ccc(-c2cc(-c3ccc(C(=O)N[C@H]4C[C@@H](O)[C@@H](O)NC(=O)[C@@H]5[C@@H](O)[C@@H](C)CN5C(=O)[C@H]([C@H](O)CC(N)=O)NC(=O)[C@H]([C@H](O)[C@@H](O)c5ccc(O)c(OS(=O)(=O)O)c5)NC(=O)[C@@H]5C[C@@H](O)CN5C(=O)[C@H]([C@@H](C)O)NC4=O)cc3)no2)cc1 [Micafungin] (X1-[Orn(4R-OH,5R-OH)]T[Hyp][hTyr(3S-OH,4S-OH,3'-OSO3H)][Gln(3R-OH)][Pro(3S-OH,4S-Me)]; lactam 1-C)
IC50 [1, 16]: 400 ± 88 nM

FAYGGACHYQFPSVKCFXK (disulfide) [HsLin06_18_22]
Fold change (reduction of the BIC50 of caspofungin by co-incubation with HsLin06_18 or HsLin06_18-variants) [14]: 1.77

FAYGGACHYQFPSVKXFCK (disulfide) [HsLin06_18_20]
Fold change (reduction of the BIC50 of caspofungin by co-incubation with HsLin06_18 or HsLin06_18-variants) [14]: 1.97

RsAFP2: plant defensin (QKLCQRPSGTWSGVCGNNNACKNQCIRLEKARHGSCNYVFPAHKCICYFPC; ends and bridges not checked; cysteine pairing not given here; UniProt P30230 30-80, looked up)
in vivo efficacy against candidiasis [15]: prophylactically effective
